According to publication doi:10.1101/2020.06.11.145995v1 (biorxiv, 2020):
Read-outs that look alike come from different tables or passages of the source.

Experiments:
Experiment in all cases: biochemical
[1] = target: ABL1(F317I)-nonphosphorylated (Homo sapiens, UniProt P00519, F317I)
[2] = target: ABL1(H396P)-nonphosphorylated (Homo sapiens, UniProt P00519, H396P)
[3] = target: JAK1(JH1domain-catalytic) (Homo sapiens, UniProt P23458)
RET(V804L) = RET(V804L) (Homo sapiens, UniProt P07949, V804L)
PAK3 = PAK3 (Homo sapiens, UniProt O75914)
PAK1 = PAK1 (Homo sapiens, UniProt Q13153)
TAOK1 = TAOK1 (Homo sapiens, UniProt Q7L7X3)
TNIK = TNIK (Homo sapiens, UniProt Q9UKE5)
PRKCI = PRKCI (Homo sapiens, UniProt P41743)
RSK2 = RSK2 (Homo sapiens, UniProt P51812)
ULK1 = ULK1 (Homo sapiens, UniProt O75385)
RET(M918T) = RET(M918T) (Homo sapiens, UniProt P07949, M918T)
MKK7 = MKK7 (Homo sapiens, UniProt O14733)
Sequence of MKK7 (O14733 whole entry): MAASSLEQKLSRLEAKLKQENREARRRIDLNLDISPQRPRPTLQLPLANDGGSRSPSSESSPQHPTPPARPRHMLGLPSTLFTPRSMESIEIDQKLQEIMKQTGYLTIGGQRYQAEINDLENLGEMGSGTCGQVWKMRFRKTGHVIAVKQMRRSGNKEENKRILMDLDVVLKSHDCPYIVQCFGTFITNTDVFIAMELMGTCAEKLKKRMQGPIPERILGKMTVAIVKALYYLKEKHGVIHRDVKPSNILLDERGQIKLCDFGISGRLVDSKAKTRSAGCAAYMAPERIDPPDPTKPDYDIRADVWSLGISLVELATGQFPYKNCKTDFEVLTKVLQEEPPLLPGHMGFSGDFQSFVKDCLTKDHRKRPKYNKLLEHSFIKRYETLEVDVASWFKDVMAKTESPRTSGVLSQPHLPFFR

PIK3CA = PIK3CA (Homo sapiens, UniProt P42336)
NEK7 = NEK7 (Homo sapiens, UniProt Q8TDX7)
Sequence of NEK7 (Q8TDX7 whole entry): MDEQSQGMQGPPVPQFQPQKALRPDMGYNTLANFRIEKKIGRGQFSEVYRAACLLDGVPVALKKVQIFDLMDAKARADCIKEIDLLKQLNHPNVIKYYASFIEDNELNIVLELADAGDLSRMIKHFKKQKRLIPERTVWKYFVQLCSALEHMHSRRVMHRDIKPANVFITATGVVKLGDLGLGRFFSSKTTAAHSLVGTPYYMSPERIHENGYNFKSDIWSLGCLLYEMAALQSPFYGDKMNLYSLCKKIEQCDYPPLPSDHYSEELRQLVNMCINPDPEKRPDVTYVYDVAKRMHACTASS

RIPK4 = RIPK4 (Homo sapiens, UniProt P57078)
Sequence of RIPK4 (P57078 whole entry): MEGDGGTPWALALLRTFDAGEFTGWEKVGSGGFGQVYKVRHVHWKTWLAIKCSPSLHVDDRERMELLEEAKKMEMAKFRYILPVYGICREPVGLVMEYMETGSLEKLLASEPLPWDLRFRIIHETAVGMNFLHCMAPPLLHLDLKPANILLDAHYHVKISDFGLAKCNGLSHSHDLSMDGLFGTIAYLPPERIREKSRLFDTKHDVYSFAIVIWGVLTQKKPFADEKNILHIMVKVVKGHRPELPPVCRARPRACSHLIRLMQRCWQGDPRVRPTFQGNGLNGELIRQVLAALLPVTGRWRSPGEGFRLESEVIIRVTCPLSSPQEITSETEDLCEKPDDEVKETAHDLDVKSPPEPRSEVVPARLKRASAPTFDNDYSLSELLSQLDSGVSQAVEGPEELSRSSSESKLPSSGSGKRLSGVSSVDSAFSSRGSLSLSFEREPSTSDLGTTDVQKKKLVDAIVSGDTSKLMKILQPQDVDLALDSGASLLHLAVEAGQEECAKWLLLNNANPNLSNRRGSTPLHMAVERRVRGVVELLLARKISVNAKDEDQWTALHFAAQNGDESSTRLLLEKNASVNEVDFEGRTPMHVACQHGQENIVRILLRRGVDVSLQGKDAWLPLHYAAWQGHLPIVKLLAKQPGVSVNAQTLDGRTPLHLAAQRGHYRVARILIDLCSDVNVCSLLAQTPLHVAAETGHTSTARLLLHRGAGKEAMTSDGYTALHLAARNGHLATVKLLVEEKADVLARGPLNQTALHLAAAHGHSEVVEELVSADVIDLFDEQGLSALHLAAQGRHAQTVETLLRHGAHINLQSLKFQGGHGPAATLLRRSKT

ROCK2 = ROCK2 (Homo sapiens, UniProt O75116)
PDPK1 = PDPK1 (Homo sapiens, UniProt O15530)
Sequence of PDPK1 (O15530 whole entry): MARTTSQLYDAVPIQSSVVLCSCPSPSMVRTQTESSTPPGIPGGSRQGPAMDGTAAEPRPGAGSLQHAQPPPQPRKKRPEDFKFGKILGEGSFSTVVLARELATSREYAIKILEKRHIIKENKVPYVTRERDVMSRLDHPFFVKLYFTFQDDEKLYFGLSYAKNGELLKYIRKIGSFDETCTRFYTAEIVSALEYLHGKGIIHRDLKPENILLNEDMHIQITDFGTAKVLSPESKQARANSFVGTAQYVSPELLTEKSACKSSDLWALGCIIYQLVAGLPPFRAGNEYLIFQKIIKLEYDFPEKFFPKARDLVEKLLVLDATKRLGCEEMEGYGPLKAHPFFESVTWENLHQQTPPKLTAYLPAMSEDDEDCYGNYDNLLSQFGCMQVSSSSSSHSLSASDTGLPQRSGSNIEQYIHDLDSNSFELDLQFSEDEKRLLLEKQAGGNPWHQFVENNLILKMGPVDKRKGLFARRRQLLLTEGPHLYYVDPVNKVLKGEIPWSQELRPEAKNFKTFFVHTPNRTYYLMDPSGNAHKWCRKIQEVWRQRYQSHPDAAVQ

PRP4 = PRP4 (Homo sapiens, UniProt Q13523)
Sequence of PRP4 (Q13523 whole entry): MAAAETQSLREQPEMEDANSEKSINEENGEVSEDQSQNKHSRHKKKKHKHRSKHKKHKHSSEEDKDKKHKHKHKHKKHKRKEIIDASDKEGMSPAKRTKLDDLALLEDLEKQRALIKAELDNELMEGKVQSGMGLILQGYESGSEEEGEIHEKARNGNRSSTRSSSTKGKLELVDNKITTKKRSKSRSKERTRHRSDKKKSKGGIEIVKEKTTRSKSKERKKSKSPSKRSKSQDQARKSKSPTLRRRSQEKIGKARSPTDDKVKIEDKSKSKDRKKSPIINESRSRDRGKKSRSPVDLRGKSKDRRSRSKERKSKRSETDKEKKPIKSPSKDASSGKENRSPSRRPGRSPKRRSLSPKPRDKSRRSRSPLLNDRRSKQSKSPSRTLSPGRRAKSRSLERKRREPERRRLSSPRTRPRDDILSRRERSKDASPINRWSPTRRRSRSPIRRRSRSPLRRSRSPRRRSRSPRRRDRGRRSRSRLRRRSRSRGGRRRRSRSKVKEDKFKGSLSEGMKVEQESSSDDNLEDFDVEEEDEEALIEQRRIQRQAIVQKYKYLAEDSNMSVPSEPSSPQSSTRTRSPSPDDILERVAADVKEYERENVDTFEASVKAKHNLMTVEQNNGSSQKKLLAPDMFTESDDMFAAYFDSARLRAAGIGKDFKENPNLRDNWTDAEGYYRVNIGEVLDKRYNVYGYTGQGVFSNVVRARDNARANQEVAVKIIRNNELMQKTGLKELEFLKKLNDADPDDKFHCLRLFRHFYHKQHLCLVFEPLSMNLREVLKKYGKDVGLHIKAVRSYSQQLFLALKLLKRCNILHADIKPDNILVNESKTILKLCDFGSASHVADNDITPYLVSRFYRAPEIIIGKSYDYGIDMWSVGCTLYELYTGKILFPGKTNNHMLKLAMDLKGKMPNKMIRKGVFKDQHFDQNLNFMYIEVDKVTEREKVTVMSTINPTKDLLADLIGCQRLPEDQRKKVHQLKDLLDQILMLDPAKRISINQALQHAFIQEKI

PRKCH = PRKCH (Homo sapiens, UniProt P24723)
PIK3CA(H1047L) = PIK3CA(H1047L) (Homo sapiens, UniProt P42336, H1047L)
SRPK1 = SRPK1 (Homo sapiens, UniProt Q96SB4)
Sequence of SRPK1 (Q96SB4 whole entry): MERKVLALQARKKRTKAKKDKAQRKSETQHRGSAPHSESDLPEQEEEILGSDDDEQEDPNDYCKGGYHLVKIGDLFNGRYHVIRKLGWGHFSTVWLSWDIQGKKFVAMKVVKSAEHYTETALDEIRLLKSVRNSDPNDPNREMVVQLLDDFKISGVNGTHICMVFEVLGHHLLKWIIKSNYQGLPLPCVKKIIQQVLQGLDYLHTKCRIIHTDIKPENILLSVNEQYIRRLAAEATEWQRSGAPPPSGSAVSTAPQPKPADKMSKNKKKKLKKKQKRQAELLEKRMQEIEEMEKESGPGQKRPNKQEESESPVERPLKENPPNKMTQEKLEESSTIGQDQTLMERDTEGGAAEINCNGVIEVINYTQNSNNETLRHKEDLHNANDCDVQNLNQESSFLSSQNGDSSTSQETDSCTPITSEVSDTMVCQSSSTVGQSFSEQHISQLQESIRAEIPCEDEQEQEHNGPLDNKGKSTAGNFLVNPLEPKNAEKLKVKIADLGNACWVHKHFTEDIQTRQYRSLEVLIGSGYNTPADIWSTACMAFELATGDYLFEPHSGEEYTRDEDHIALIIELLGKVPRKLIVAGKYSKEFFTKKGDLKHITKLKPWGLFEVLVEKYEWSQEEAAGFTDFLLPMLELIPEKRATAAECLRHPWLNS

TAOK2 = TAOK2 (Homo sapiens, UniProt Q9UL54)
SIK2 = SIK2 (Homo sapiens, UniProt Q9H0K1)
RET(V804M) = RET(V804M) (Homo sapiens, UniProt P07949, V804M)
TIE2 = TIE2 (Homo sapiens, UniProt Q02763)
PDGFRA = PDGFRA (Homo sapiens, UniProt P16234)
SIK = SIK (Homo sapiens, UniProt P57059)
PLK1 = PLK1 (Homo sapiens, UniProt P53350)
[4] = read-out: HYJ-2-002-1 (1uM) % control
[5] = read-out: HYJ-2-002-1 (1μM) % control
[6] = read-out: CPT-1-70-1 (1uM) % control
[7] = read-out: CPT-1-70-1 (1μM) % control

Sequence of JAK1(JH1domain-catalytic) (P23458 whole entry): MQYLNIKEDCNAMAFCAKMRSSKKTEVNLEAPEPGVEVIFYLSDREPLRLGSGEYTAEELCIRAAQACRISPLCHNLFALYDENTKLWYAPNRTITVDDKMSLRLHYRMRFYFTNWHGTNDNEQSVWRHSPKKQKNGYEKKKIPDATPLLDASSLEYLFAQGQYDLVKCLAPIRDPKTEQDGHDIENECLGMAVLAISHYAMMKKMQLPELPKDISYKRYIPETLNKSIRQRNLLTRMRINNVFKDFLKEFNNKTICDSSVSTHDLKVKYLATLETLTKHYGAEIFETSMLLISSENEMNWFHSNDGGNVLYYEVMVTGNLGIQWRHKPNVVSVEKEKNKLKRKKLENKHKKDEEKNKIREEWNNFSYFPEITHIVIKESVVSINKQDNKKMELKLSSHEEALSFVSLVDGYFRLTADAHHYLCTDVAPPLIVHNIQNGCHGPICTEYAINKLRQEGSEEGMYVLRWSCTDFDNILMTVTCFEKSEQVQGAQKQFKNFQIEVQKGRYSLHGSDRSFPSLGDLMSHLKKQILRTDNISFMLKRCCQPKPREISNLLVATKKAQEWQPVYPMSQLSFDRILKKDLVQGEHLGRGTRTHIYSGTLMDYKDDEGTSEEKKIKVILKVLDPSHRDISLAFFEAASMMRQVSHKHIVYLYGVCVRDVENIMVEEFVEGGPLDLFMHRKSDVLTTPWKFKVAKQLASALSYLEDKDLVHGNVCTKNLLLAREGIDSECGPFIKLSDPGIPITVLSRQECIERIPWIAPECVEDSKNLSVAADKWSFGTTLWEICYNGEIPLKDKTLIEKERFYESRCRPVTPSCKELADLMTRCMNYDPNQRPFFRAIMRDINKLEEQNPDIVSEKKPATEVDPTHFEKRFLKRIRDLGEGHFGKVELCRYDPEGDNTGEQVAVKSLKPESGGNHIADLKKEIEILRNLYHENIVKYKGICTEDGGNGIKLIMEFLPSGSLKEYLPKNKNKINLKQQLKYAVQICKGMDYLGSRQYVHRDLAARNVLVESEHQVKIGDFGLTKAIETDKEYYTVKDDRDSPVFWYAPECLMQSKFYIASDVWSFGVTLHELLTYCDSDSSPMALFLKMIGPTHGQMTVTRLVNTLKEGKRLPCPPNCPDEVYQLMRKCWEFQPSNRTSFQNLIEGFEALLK

CCN1CCN(Cc2ccc(NC(=O)c3ccc(C)c(CCc4cnc5[nH]ccc5c4OC)c3)cc2C(F)(F)F)CC1 [HYJ-2-002-1]
remaining activity at 1 µM [1, 4]: 0%
remaining activity at 1 µM [2, 4]: 0%
remaining activity at 1 µM [3, 4]: 41%
remaining activity at 1 µM (RET(V804L); [5]): 1.4%
remaining activity at 1 µM (PAK3; [5]): 100%
remaining activity at 1 µM (PAK1; [5]): 100%
remaining activity at 1 µM (TAOK1; [5]): 34%
remaining activity at 1 µM (TNIK; [5]): 11%
remaining activity at 1 µM (PRKCI; [5]): 73%
remaining activity at 1 µM (RSK2; read-out: HYJ-2-002-1 (1μM) % control, Kin.Dom.1-N-terminal): 100%
remaining activity at 1 µM (ULK1; [5]): 89%
remaining activity at 1 µM (RET(M918T); [5]): 0.95%
remaining activity at 1 µM (MKK7; [5]): 8.2%
remaining activity at 1 µM (PIK3CA; [5]): 100%
remaining activity at 1 µM (NEK7; [5]): 100%
remaining activity at 1 µM (RIPK4; [5]): 100%
remaining activity at 1 µM (ROCK2; [5]): 94%
remaining activity at 1 µM (PDPK1; [5]): 72%
remaining activity at 1 µM (PRP4; [5]): 100%
remaining activity at 1 µM (PRKCH; [5]): 100%
remaining activity at 1 µM (PIK3CA(H1047L); [5]): 100%
remaining activity at 1 µM (SRPK1; [5]): 83%
remaining activity at 1 µM (TAOK2; [5]): 18%
remaining activity at 1 µM (SIK2; [5]): 34%
remaining activity at 1 µM (RET(V804M); [5]): 1%
remaining activity at 1 µM (TIE2; [5]): 0.15%
remaining activity at 1 µM (PDGFRA; [5]): 0.65%
remaining activity at 1 µM (SIK; [5]): 1.8%
remaining activity at 1 µM (PLK1; [5]): 100%

CN1CCN(c2ccc(Nc3nc(Oc4ccc(NC(=O)CCl)cc4)c4cc[nH]c4n3)cc2)CC1 [CPT1-70-1]
remaining activity at 1 µM [1, 6]: 100%
remaining activity at 1 µM [2, 6]: 7.2%
remaining activity at 1 µM [3, 6]: 77%
remaining activity at 1 µM (RET(V804L); [7]): 11%
remaining activity at 1 µM (PAK3; [7]): 50%
remaining activity at 1 µM (PAK1; [7]): 64%
remaining activity at 1 µM (TAOK1; [7]): 96%
remaining activity at 1 µM (TNIK; [7]): 20%
remaining activity at 1 µM (PRKCI; [7]): 65%
remaining activity at 1 µM (RSK2; read-out: CPT-1-70-1 (1μM) % control, Kin.Dom.1-N-terminal): 100%
remaining activity at 1 µM (ULK1; [7]): 32%
remaining activity at 1 µM (RET(M918T); [7]): 13%
remaining activity at 1 µM (MKK7; [7]): 8.1%
remaining activity at 1 µM (PIK3CA; [7]): 100%
remaining activity at 1 µM (NEK7; [7]): 100%
remaining activity at 1 µM (RIPK4; [7]): 100%
remaining activity at 1 µM (ROCK2; [7]): 26%
remaining activity at 1 µM (PDPK1; [7]): 64%
remaining activity at 1 µM (PRP4; [7]): 90%
remaining activity at 1 µM (PRKCH; [7]): 100%
remaining activity at 1 µM (PIK3CA(H1047L); [7]): 100%
remaining activity at 1 µM (SRPK1; [7]): 44%
remaining activity at 1 µM (TAOK2; [7]): 65%
remaining activity at 1 µM (SIK2; [7]): 57%
remaining activity at 1 µM (RET(V804M); [7]): 2.2%
remaining activity at 1 µM (TIE2; [7]): 100%
remaining activity at 1 µM (PDGFRA; [7]): 64%
remaining activity at 1 µM (SIK; [7]): 100%
remaining activity at 1 µM (PLK1; [7]): 100%
